Source: patent US4609667A, “Inhibitor of mammalian collagenase and elastase” (American Home Products Corporation, priority 1985, dated 1986)

What was measured:
Type in all cases: biochemical
human leukocyte elastase [1] = biological target: T1, human leukocyte elastase (Homo sapiens, UniProt P08246); assay: human elastase inhibition in vitro assay, Method 1 (succinyl-L-alanyl-L-alanyl-L-alanyl-p-nitroanilide substrate)
T1 construct: A crude elastase preparation is made by homogenizing human leukocyte granules; from tissue; host or cells: human leukocyte granules (homogenized, supernatant dialyzed; crude preparation)
T1 sequence (P08246 30-247 limits assumed): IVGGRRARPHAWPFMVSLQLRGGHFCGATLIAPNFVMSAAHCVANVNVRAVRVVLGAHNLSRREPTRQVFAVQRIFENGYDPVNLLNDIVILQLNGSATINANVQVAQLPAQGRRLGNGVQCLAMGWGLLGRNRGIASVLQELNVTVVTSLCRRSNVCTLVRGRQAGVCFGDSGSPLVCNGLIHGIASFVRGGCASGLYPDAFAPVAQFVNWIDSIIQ
Method: (§1) The compound N-[[5-chloro-2-benzothiazolyl)thio]-phenylacetyl]-L-cysteine is tested for human elastase inhibition in an in vitro assay which is carried out as follows:
(§2) A crude elastase preparation is made by homogenizing human leukocyte granules [prepared according to the method of R. J. Baryk and J. Travis, Biochemistry, 15, (4), 837 (1976)], spinning and dialyzing the supernates against cold 0.05 M trisHCl/0.05 M Na Cl at a pH 8.0.
(§3) This elastase preparation is used in two assay methods to test for elastase inhibition.
400 μl of the elastase preparation, 10 μl (0.0625 mg) of succinyl-L-alanyl-L-alanyl-L-alanyl-p-nitroanilide (the enzyme substrate), 207 μl of buffer and varying amounts of the elastase inhibitor under testing are incubated at 37° C. for 19 hours. The hydrolysis is measured by use of high pressure liquid chromatography (HPLC) or by the spectrophotometric measurement of the release of p-nitroaniline at a wavelength of 410 nm.

human leukocyte elastase [2] = biological target: T1, human leukocyte elastase; assay: human elastase inhibition in vitro assay, Method 2 (elastin-Congo red complex); conditions: 20 μg of compound; 37° C., 18 hours; Standard (complete hydrolysis by hog pancreatic elastase) 1.0; No Inhibitor 0.104
Method: as §1, §2, §3
In this method, the substrate used is an elastin-Congo red complex. Hydrolysis of this substrate by elastase releases Congo red, which is assayed by HPLC. The assay system also contains buffer and either 20 μg of the compound of Example 1, or no compound. The system is incubated at 37° C. for 18 hours. The standard sample represents the complete hydrolysis of the elastin-Congo red complex by hog pancreatic elastase.

[3] = biological target: Collagenase produced by normal human leukocytes or by normal human skin fibroblasts; assay: in vitro collagenase inhibition assay (14C-acetylated collagen hydrolysis); conditions: pH 7.4, 35° C., one to five hours
Method: The compound N-[[(5-chloro-2-benzothiazolyl)thio]-phenylacetyl]-L-cysteine is tested for collagenase inhibition in an in vitro assay based on the procedure described by A. Sellers and J.J. Reynolds, Biochem. J., 167 (1977) pp. 353-60.
Collagenase produced by normal human leukocytes or by normal human skin fibroblasts in cell cultures is purified by adsorption onto a collagen Sepharose 4B column. Prior to use in the assay, the zymogen is activated with trypsin, while the trypsin in turn, is inactivated with an excess of soybean trypsin inhibitor.
According to the assay procedure, microfuge tubes are prepared containing a total of about 150 μl. of solution containing: 25 μl. collagen (^14 C-acetylated collagen--2 mg./ml in 0.01% acetic acid); 25 μl. of 0.15 M tris/0.015 M CaCl2, pH 7.4; 75 μl. collagenase in tris buffer (0.05 M tris/0.005 M CaCl2, pH 7.4); and 25 μl. of collagenase inhibitor in tris buffer. Samples and controls are incubated at 35° C. for one to five hours depending upon potency of the enzyme. At the end of the reaction period, the tubes are spun down in a Beckman Microfuge. A 25 μl. aliquot of each tube is then assayed in a scintillation counter. Since native collagen forms insoluble fibrils under these conditions, radioactivity detected in the supernate is a measure of collagen hydrolysis. […]

`O=C(N[C@@H](CS)C(=O)O)C(Sc1nc2cc(Cl)ccc2s1)c1ccccc1` (stereo partly drawn) [Example 1, N-[[(5-chloro-2-benzothiazolyl)thio]phenylacetyl]-L-cysteine] was tested, and the IC50 (human leukocyte elastase [1]; 37° C., 19 hours, HPLC or 410 nm) was 4.78 µM, the “inhibitory effect on the enzymatic activity of human leukocyte elastase (in words)” value (human leukocyte elastase [1]; conclusion from Methods 1 and 2) was “strong inhibitory effect” and the “Relative Release of Congo Red” value (human leukocyte elastase [2]) was 0.000. For the same compound, the IC50 ([3]; Experiment 1: Collagen I as substrate) was 5.7 µM and the IC50 ([3]; Experiment 2: Collagen II as substrate) was 12.5 µM.
